According to PubChem BioAssay AID248 (DTP/NCI, 2004):
“And” between values parts separate entries of the source, which are not always exact repeats. Equal values may be shown once. Toxic doses and inconclusive results are not listed. Rule as the data show it: active = T/C of 150% or more; inactive = T/C below 125%. Peptide text beside a SMILES is read from it.

System: L1210 leukemia ip in BDF1 mice, survival T/C
Test: NCI In Vivo Anticancer Drug Screen. Data for tumor model L1210 Leukemia (intraperitoneal) in B6D2F1 (BDF1) mice
Details: endpoint: mean survival time, higher = longer survival
In short: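 Survival endpoint. Drug-treated group vs vehicle group, expressed as T divided by C. Tumor passaged by transplantation.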

[1] = dose: 100.0 mg/kg/injection, schedule: Q01DX009 (ip), vehicle: saline with Tween-80
[2] = dose: 100.0 mg/kg/injection, schedule: Q04DX003 (ip), vehicle: saline with Tween-80
[3] = dose: 200.0 mg/kg/injection, schedule: Q01DX009 (ip), vehicle: saline with Tween-80
[4] = dose: 200.0 mg/kg/injection, schedule: Q04DX003 (ip), vehicle: saline with Tween-80
[5] = dose: 400.0 mg/kg/injection, schedule: Q04DX003 (ip), vehicle: saline with Tween-80
[6] = dose: 50.0 mg/kg/injection, schedule: Q04DX002 (ip), vehicle: Klucel (hydroxypropylcellulose) (HPC)
[7] = dose: 100.0 mg/kg/injection, schedule: Q04DX002 (ip), vehicle: Klucel (hydroxypropylcellulose) (HPC)
[8] = dose: 25.0 mg/kg/injection, schedule: Q01DX009 (ip), vehicle: saline with Tween-80
[9] = dose: 100.0 mg/kg/injection, schedule: Q04DX002 (ip), vehicle: saline
[10] = dose: 200.0 mg/kg/injection, schedule: Q04DX002 (ip), vehicle: saline
[11] = dose: 400.0 mg/kg/injection, schedule: Q04DX002 (ip), vehicle: saline
[12] = dose: 50.0 mg/kg/injection, schedule: Q01DX009 (ip), vehicle: Klucel (hydroxypropylcellulose) (HPC)
[13] = dose: 100.0 mg/kg/injection, schedule: Q01DX009 (ip), vehicle: Klucel (hydroxypropylcellulose) (HPC)
[14] = dose: 12.5 mg/kg/injection, schedule: Q01DX009 (ip), vehicle: saline with Tween-80
[15] = dose: 50.0 mg/kg/injection, schedule: Q01DX001 (ip), vehicle: carboxymethylcellulose (CMC)
[16] = dose: 50.0 mg/kg/injection, schedule: Q01DX009 (ip), vehicle: saline with Tween-80
[17] = dose: 100.0 mg/kg/injection, schedule: Q01DX001 (ip), vehicle: carboxymethylcellulose (CMC)
[18] = dose: 200.0 mg/kg/injection, schedule: Q01DX009 (ip), vehicle: Klucel (hydroxypropylcellulose) (HPC)
[19] = dose: 400.0 mg/kg/injection, schedule: Q01DX009 (ip), vehicle: Klucel (hydroxypropylcellulose) (HPC)

Measured: T/C

CC(C)=Cc1ccccc1
inactive: [1] 98 % of control | [2] 95 % of control | [3] 93 % of control | [4] 87 % of control | [5] 94 % of control

C[N+](C)(C)CCCCCCCC[N+](C)(C)CCCCCCCCCC[N+](C)(C)CCCCCCCC[N+](C)(C)C
inactive: dose: 23.0 micrograms/kg/injection, schedule: Q04DX003 (ip), vehicle: saline 97 % of control | dose: 45.0 micrograms/kg/injection, schedule: Q04DX003 (ip), vehicle: saline 105 % of control | dose: 90.0 micrograms/kg/injection, schedule: Q04DX003 (ip), vehicle: saline 103 % of control

NC(=O)C(CCCN=C(N)N)NC(=O)CNC(=O)C(N)CO (stereo not drawn) (H-Ser-Gly-Arg-NH2; configuration not given here)
inactive: dose: 25.0 mg/kg/injection, schedule: Q04DX002 (ip), vehicle: Klucel (hydroxypropylcellulose) (HPC) 103 % of control | [6] 106 % of control | [7] 100 % of control

O=[N+]([O-])c1cccc(OCCOc2ccccc2)c1
inactive: [8] 116 % of control | dose: 33.0 mg/kg/injection, schedule: Q01DX009 (ip), vehicle: saline with Tween-80 98 % of control | dose: 75.0 mg/kg/injection, schedule: Q01DX009 (ip), vehicle: saline with Tween-80 96 % of control | [1] 102 % of control and 86 % of control | [3] 102 % of control | dose: 400.0 mg/kg/injection, schedule: Q01DX009 (ip), vehicle: saline with Tween-80 102 % of control

CCOC(=O)CP(=O)(OCC)OCC
inactive: dose: 100.0 mg/kg/injection, schedule: Q01DX009 (ip), vehicle: saline 103 % of control | dose: 100.0 mg/kg/injection, schedule: Q04DX003 (ip), vehicle: saline 109 % of control | dose: 200.0 mg/kg/injection, schedule: Q01DX009 (ip), vehicle: saline 106 % of control | dose: 200.0 mg/kg/injection, schedule: Q04DX003 (ip), vehicle: saline 102 % of control | dose: 400.0 mg/kg/injection, schedule: Q01DX009 (ip), vehicle: saline 99 % of control | dose: 400.0 mg/kg/injection, schedule: Q04DX003 (ip), vehicle: saline 113 % of control

Cc1cc(Cl)ccc1OCC(=O)Nc1cccc(C(F)(F)F)c1
inactive: [9] 103 % of control | [10] 100 % of control | [11] 92 % of control

O=c1oc2c3ccccc3c3ccccc3c2o1
inactive: dose: 25.0 mg/kg/injection, schedule: Q01DX009 (ip), vehicle: Klucel (hydroxypropylcellulose) (HPC) 113 % of control | [12] 103 % of control | [13] 94 % of control

Oc1c(Cl)cc(Cl)c2cccnc12
inactive: [14] 92 % of control | [8] 90 % of control | [15] 98 % of control | [16] 92 % of control | [17] 91 % of control | [1] 94 % of control

Cc1ccc(S(C)=O)cc1 (stereo unspecified)
inactive: dose: 100.0 mg/kg/injection, schedule: Q01DX001 (ip), vehicle: saline 102 % of control | dose: 200.0 mg/kg/injection, schedule: Q01DX001 (ip), vehicle: saline 95 % of control | dose: 400.0 mg/kg/injection, schedule: Q01DX001 (ip), vehicle: saline 95 % of control

Cc1cccc(SC(=O)Nc2ccc(Cl)cc2C)c1
inactive: [14] 91 % of control | [8] 95 % of control | [16] 119 % of control

COc1ccc(OC(=O)Nc2ccc([N+](=O)[O-])cc2OC)cc1
inactive: [13] 96 % of control | [18] 95 % of control | [19] 101 % of control

C(=N/Nc1ccccn1)/c1cccnc1
inactive: dose: 100.0 mg/kg/injection, schedule: Q01DX001 (ip), vehicle: saline with Tween-80 112 % of control

COc1cc2c(cc1OC)C1=CC(=O)N3CCCC34OS(=O)OC14CC2 (stereo unspecified)
inactive: [13] 97 % of control | dose: 100.0 mg/kg/injection, schedule: Q04DX003 (ip), vehicle: Klucel (hydroxypropylcellulose) (HPC) 98 % of control | [18] 100 % of control | dose: 200.0 mg/kg/injection, schedule: Q04DX003 (ip), vehicle: Klucel (hydroxypropylcellulose) (HPC) 96 % of control | [19] 96 % of control | dose: 400.0 mg/kg/injection, schedule: Q04DX003 (ip), vehicle: Klucel (hydroxypropylcellulose) (HPC) 96 % of control

Oc1ccc(Cl)cc1/C=N/Nc1nnc(N/N=C/c2cc(Cl)ccc2O)c2ccccc12
inactive: [15] 90 % of control | [17] 93 % of control | dose: 200.0 mg/kg/injection, schedule: Q01DX001 (ip), vehicle: carboxymethylcellulose (CMC) 95 % of control | dose: 400.0 mg/kg/injection, schedule: Q01DX001 (ip), vehicle: carboxymethylcellulose (CMC) 95 % of control

CN(N)c1ncnc2c1ncn2C1OC(CO)C(O)C1O (stereo unspecified)
inactive: [2] 114 % of control | [4] 106 % of control | [5] 95 % of control

COc1ccc(OC)c(NC(=O)Oc2ccc3ccccc3c2)c1
inactive: [9] 93 % of control | [10] 101 % of control | [11] 96 % of control

S=C([S-])N1CCCCC1.S=C([S-])N1CCCCC1.[Zn]
inactive: dose: 18.8 mg/kg/injection, schedule: Q04DX003 (ip), vehicle: saline 92 % of control | dose: 37.5 mg/kg/injection, schedule: Q04DX003 (ip), vehicle: saline 92 % of control | dose: 75.0 mg/kg/injection, schedule: Q01DX001 (ip), vehicle: saline 88 % of control | dose: 75.0 mg/kg/injection, schedule: Q04DX003 (ip), vehicle: saline 96 % of control

CC(=O)Nc1ccccc1O
inactive: [6] 94 % of control | dose: 75.0 mg/kg/injection, schedule: Q01DX009 (ip), vehicle: saline 95 % of control | [7] 94 % of control and 102 % of control | dose: 150.0 mg/kg/injection, schedule: Q01DX009 (ip), vehicle: saline 113 % of control | dose: 200.0 mg/kg/injection, schedule: Q04DX002 (ip), vehicle: Klucel (hydroxypropylcellulose) (HPC) 102 % of control | dose: 300.0 mg/kg/injection, schedule: Q01DX009 (ip), vehicle: saline 89 % of control | dose: 400.0 mg/kg/injection, schedule: Q04DX002 (ip), vehicle: Klucel (hydroxypropylcellulose) (HPC) 113 % of control

O=C(O)c1cc(Cl)ccc1Br
inactive: [12] 104 % of control | [13] 100 % of control | [2] 100 % of control | [18] 105 % of control | [4] 104 % of control | [5] 94 % of control

CN(C)C1CCC2C3CC=C4CC(OC=O)CCC4(C)C3CCC21C (stereo unspecified)
inactive: dose: 9.38 mg/kg/injection, schedule: Q01DX001 (ip), vehicle: other 101 % of control | dose: 18.75 mg/kg/injection, schedule: Q01DX001 (ip), vehicle: other 101 % of control | dose: 37.5 mg/kg/injection, schedule: Q01DX001 (ip), vehicle: other 100 % of control
